Experimental data published in patent publication US20250064804A1, “COMBINATION THERAPY FOR TREATING ABNORMAL CELL GROWTH” (Verastem, Inc., priority 2021, published 2025).

Key:
[1] = system: Human KRAS mutant pancreatic cancer cell lines stably expressing a tandem fluorescent GFP-LC3-RFP-LC3ΔG reporter; assay: Autophagic flux (GFP-LC3-RFP-LC3ΔG reporter, flow cytometry); type: cell-based; settings: 1 μM avutometinib, 24 hours, vs vehicle (DMSO); all 3 cell lines tested; 2D conditions
Experimental: Human KRAS mutant pancreatic cancer cell lines stably expressing a tandem fluorescent GFP-LC3-RFP-LC3ΔG reporter were grown in 2D conditions. Briefly, cells were seeded in 96-well plates and after an overnight incubation (17-22 hours), cells were treated with 1 μM of the RAF/MEK clamp avutometinib (VS-6766) for 24 hours. Following treatment, cells were collected and changes in autophagic flux were measured by flow cytometry. Autophagic flux was quantified by calculating the ratio of RFP/GFP in cell lines tested. Autophagic flux was assessed in a panel of 3 human KRAS mutant pancreatic cancer cell lines stably expressing a tandem fluorescent GFP-LC3-RFP-LC3ΔG reporter (FIG. 1). […] In FIG. 1, human KRAS mutant pancreatic cancer cell lines stably expressing a tandem fluorescent GFP-LC3-RFP-LC3ΔG reporter were treated with vehicle (DMSO) or avutometinib for 24 hours. Following treatment, cells were collected and changes in autophagic flux were measured by flow cytometry. Autophagic flux was quantified by calculating the ratio of RFP/GFP in cell lines tested.

[2] = system: human KRAS mutant pancreatic cancer cell lines; assay: Proliferation assay (live cell counting) with Bliss synergy analysis; type: cell-based; settings: 5 days, panel of 4 cell lines, 2D conditions
Experimental: Parental human KRAS mutant pancreatic cancer cell lines were grown in 2D conditions. Briefly, cells were seeded in 96-well plates and after an overnight incubation (17-22 hours), cells were treated with the RAF/MEK clamp avutometinib (VS-6766)+/− the autophagy pathway inhibitor chloroquine (CQ) or apilimod (AP) for 5 days. Following drug treatment, live cell counting was performed and plotted to quantify effects on proliferation. Bliss synergy analysis were performed to calculate synergy scores between avutometinib+chloroquine and avutometinib+apilimod.
Proliferation assays were performed to determine whether chloroquine (CQ) or apilimod (AP) augmented the anti-proliferative activity of avutometinib in a panel of 4 human KRAS mutant pancreatic cancer cell lines (FIG. 2). Following drug treatment, live cell counting was performed and plotted to quantify effects on proliferation. Heatmaps indicating BLISS synergy scores are shown (Red=synergy, white=additivity, green=antagonism).

SMILES: CNS(=O)(=O)Nc1nccc(Cc2c(C)c3ccc(Oc4ncccn4)cc3oc2=O)c1F [avutometinib]
- increase of autophagic flux (ratio of RFP/GFP) [1]: two-to six
- Bliss synergy with apilimod in reducing cell viability ([2]; avutometinib + apilimod (AP)): synergistic
- Bliss synergy with chloroquine in reducing cell viability ([2]; avutometinib + chloroquine (CQ)): synergistic
